Legend:
PARK7 [1] = molecular target: T1, PARK7 (Homo sapiens, UniProt Q99497); test: Gel-based competition assay with probe 8RK59, PARK7 band; format: biochemical; set-up: GST (N, cleaved yes); made in house; host or cells: E. coli BL21(DE3) Rosetta2
T1 sequence (Q99497 1-189): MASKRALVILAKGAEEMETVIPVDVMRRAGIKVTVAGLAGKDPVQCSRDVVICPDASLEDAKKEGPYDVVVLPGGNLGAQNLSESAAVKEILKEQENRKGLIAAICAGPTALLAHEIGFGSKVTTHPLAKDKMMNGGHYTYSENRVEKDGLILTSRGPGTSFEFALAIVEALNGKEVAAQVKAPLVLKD
Procedure: (§1) To assess the inhibitory potency and selectivity of these compounds toward PARK7 and UCHL1, we performed a gel-based competition assay (Figure 3A).[36] A mixture of equal amounts of PARK7 and UCHL1 (1 μM) was treated with each of the synthesized compounds (2 μM) for 1 h, followed by incubation with fluorescent probe 8RK59 (2 μM) for 30 min. Samples were resolved by SDS-PAGE, and the gel was scanned for fluorescence. Inhibition of PARK7 or UCHL1 is reflected by the disappearance of their corresponding bands (Figure 3B). […] The inhibition potential of JYQ-88 against PARK7 was assessed in a similar assay where PARK7 was incubated with a serial dilution of JYQ-88 before treatment with probe 8RK59 (Figure 3C). A clear inhibition is visible at 0.5 μM, and full inhibition is achieved between 1 and 2 μM. […] The selectivity of JYQ-88 between UCHL1 and PARK7 was further confirmed in a direct competition assay between equal amounts of PARK7 and UCHL1 (Figure 3F). PARK7 inhibition was observed starting from 0.5 μM JYQ-88, whereas inhibition of UCHL1 was only detected at 20 μM. Since JYQ-88 and 8RK64 are enantiomers, we assumed that the interactions with PARK7 should be similar. To investigate how the chiral center influences the selectivity, we solved the crystal structure of the PARK7−JYQ-88 complex with 1.42 Å resolution (Figure 3G, Table S1, PDB 7PA3). The global positioning of the inhibitor in between the two α-helices was similar to that for 8RK64. […] This way, the thiazolo-pyridine part of JYQ-88 is bound in a similar manner as 8RK64 and the earlier observed interactions are largely the same. The formation of the isothiourea moiety, stabilized by the interaction with Glu18, and the interaction between the thiazole amine and the amide NH2 of the Asn76 side chain are still present. However, the interaction between the azidoacetyl carbonyl with the Leu128 backbone carbonyl can no longer be observed due to the rotation of the azidoacetyl moiety. The Lys132 residue also seems to have rotated (compared to Figure 2C).
(§2) The assay was performed in Tris buffer as described above.

UCHL1 = molecular target: T2, UCHL1 (Homo sapiens, UniProt P09936); test: Gel-based competition assay with probe 8RK59, UCHL1 band; format: biochemical
T2 sequence (P09936 1-223): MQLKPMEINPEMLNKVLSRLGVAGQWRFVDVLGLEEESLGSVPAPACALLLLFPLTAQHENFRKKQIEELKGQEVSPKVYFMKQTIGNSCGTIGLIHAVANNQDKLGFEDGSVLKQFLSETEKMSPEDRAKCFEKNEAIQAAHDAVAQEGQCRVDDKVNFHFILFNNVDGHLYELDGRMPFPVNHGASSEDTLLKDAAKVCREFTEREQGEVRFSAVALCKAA
Procedure: as §1, §2

PARK7 [2] = molecular target: T1, PARK7; test: FP assay with Rhodamine110 probe JYQ-107 (IC50 and hit validation); format: binding; set-up: GST (N, cleaved yes); made in house; host or cells: E. coli BL21(DE3) Rosetta2; conditions: PARK7 0.2 μM, 1 h preincubation, JYQ-107 20 nM
[3] = compound 2 μM, 1 h, PARK7 and UCHL1 1 μM each, then 8RK59 2 μM 30 min, Figure 3B
[4] = direct competition, equal amounts of PARK7 and UCHL1, Figure 3F

Concentration at which clear inhibition of PARK7 is visible (PARK7 [1]; PARK7 1 μM, serial dilution of inhibitor, then 8RK59, Figure 3C): 0.5 µM | Inhibition of PARK7 (disappearance of 8RK59-labeled band) (PARK7 [1]; [3]): almost complete inhibition | Concentration from which PARK7 inhibition was observed (PARK7 [1]; [4]): 0.5 µM | Inhibitory potency toward PARK7 compared with 8RK64 (PARK7 [1]; gel-based PARK7 inhibition assays, Figures 3C and S2): slightly more potent | Inhibition of UCHL1 (disappearance of 8RK59-labeled band) (UCHL1; [3]): without inhibiting | Concentration at which inhibition of UCHL1 was detected (UCHL1; [4]): 20 µM | IC50 (PARK7 [2]): 240 nM
Structure (SMILES): N#CN1CC[C@@H](C(=O)Nc2nc3c(s2)CN(C(=O)CN=[N+]=[N-])CC3)C1 [JYQ-88, (R)-N-(5-(2-Azidoacetyl)-4,5,6,7-tetrahydrothiazolo[5,4-c]pyridin-2-yl)-1-cyanopyrrolidine-3carboxamide]

— article PMC9574860, “Chemical Toolkit for PARK7: Potent, Selective, and High-Throughput” (Journal of Medicinal Chemistry, 2022)
